Test results: patent publication US20120141448A1, “Method for increasing muscle mass and strength” (priority 2010, published 2012)

Key:
[1] = system: known non-responder to creatine supplementation; test: Creatine non-responder RJ: two-week strength training program, total body weight and total strength; format: in vivo, human; details: subject one
Method: A. patient one, 198 cm tall, a known non-responder to creatine supplementation, followed a two-week strength training program while testing whether supplementation with PA-enriched-lecithin improves creatine response. Total starting total body weight and strength were measured on day one, followed by the training program, consisting of concentric and eccentric isotonic lifting exercises that worked the upper and lower body muscle groups. Either free weights or weight machines were used once or twice weekly. Strength training was performed three times per week with at least one day of rest between sessions, which alternated between lower and upper body exercises. During the two-week period, a total of six training sessions (three upper and three lower) were performed. Each exercise included two sets of ten repetitions at 30% and 60% 1RM, followed by two sets of 3 to 5 repetitions at 90% 1RM.
The lower body exercise included seven different exercises: seated leg press, leg curls, standing calf raises, leg extensions, inclined leg lift, inverted situps (back extension) and 45° inclined situps. The upper body exercise consisted of seven different exercises: bench press, latissimus pulldown, triceps pulldown, inclined dumbbell curls, seated preacher curls, seated rows, and CyBec Pec Fly.
Total upper and lower body weight lifted were calculated as the average weight lifted during the last three sets multiplied by the average repetition in each set. Total strength was determined as the combined lower and upper total weight lifted. Total body weight was determined after day 8 and day 15. Strength was measured on days 1 and 15.
A four-week rest period followed the first two-week training program. The same program was repeated twice, the control was supplementation of creatine monohydrate (Creapure, Alzchem, Germany) 4 times 5 grams per day for five days of loading, followed by nine days of five grams creatine monohydrate. During the second program, creatine monohydrate was given as for the control program with the addition of PA-enriched lecithin (Chemi Nutra, White Bear Lake, Minn.) which was about 50% PA.

[2] = system: known non-responder to creatine supplementation; test: Creatine non-responder MP: three-week strength training program, total body weight and total strength; format: in vivo, human; details: subject two
Method: B. patient two, 185 cm tall, also a known non-responder to creatine supplementation, followed a three-week strength training program while testing whether supplementation with PA-enriched-lecithin improves creatine response. Total starting total body weight and strength were measured on day one, followed by the training program, consisting of concentric and eccentric isotonic lifting exercises that worked the upper and lower body muscle groups with either free weights or weight machines used once or twice weekly. Strength training was performed three times per week with at least one day of rest between sessions, which alternated between lower and upper body exercises. During the three-week period, a total of […] were performed. Each exercise included two sets of ten repetitions at 40% and 65% 1RM, followed by two sets of 3 to 5 repetitions at 90% 1RM.
The lower body exercise included seven different exercises: seated leg press, leg curls, standing calf raises, leg extension, inclined leg lift, inverted situps (back extension) and 45° inclined situps. The upper body exercise consisted of seven different exercises: bench press, latissimus pulldown, triceps pulldown, inclined dumbbell curls, seated preacher curls, seated rows, and CyBec Pec Fly. Total upper and lower body weight lifted were calculated as the average weight lifted during the last three sets multiplied by the average repetition in each set. Total strength was determined as the combined lower and upper total weight lifted. […] Strength was measured on days 1 and 22.
A four-week rest period followed the first three-week training program. The same program was repeated twice, the control was supplemented with creatine monohydrate (Creapure®, Alzchem, Germany) 5 grams per day of five grams creatine monohydrate for 21 days. During the second program, creatine monohydrate was given as for the control program with the addition of 1 gram per day PA-enriched lecithin (Chemi Nutra, White Bear Lake, Minn.) which was about 50% PA.

With `CN(CC(=O)O)C(=N)N.O` [Creatine Supplement, creatine monohydrate] the “weight, day 1” value ([1]; day 1 of two-week program) was 88.8 kg, the total strength increase ([1]; day 1 vs day 15) was 5% and the “weight, day 8” value ([1]; day 8 of two-week program) was 88.3 kg. The “weight, day 15” value ([1]; day 15 of two-week program) was 88.0 kg, the “effect on body weight” value ([1]; two-week program) was “not effective in preventing a slight weight loss” and the “weight, day 1” value ([2]; day 1 of three-week program) was 81.9 kg. The total strength increase ([2]; day 1 vs day 22) was 5%, the “weight, day 10” value ([2]; day 10 of three-week program) was 81.5 kg and the “weight, day 22” value ([2]; day 22 of three-week program) was 81.2 kg. The “effect on body weight” value ([2]; three-week program) was “not effective in preventing a slight weight loss”.
